Reference: ChEMBL document CHEMBL4828760, “Chalcogenides-incorporating carbonic anhydrase inhibitors concomitantly reverted oxaliplatin-induced neuropathy and enhanced antiproliferative action” (Eur J Med Chem, 2021)
Each block holds one molecule with its values, some of them ahead of it. The source made the active and inactive calls.

Experiments:
Mus musculus [1] = assay: Antiallodynic activity in po dosed CD-1 albino mouse model of oxaliplatin-induced neuropathic pain assessed as reduction in pain-related behavior administered 14 days post oxaliplatin induction and measured upto 75 mins by cold plate test; assay type: functional, organism-based; details: dose 10-100 mg/kg, time 14.0 day
Mus musculus [2] = assay: Anti-hypersensitive activity in CD-1 albino mouse model of oxaliplatin-induced neuropathic pain assessed as restoration of normal pain threshold at 30 to 100 mg/kg, po administered 14 days post oxaliplatin induction and measured upto 75 mins by cold plate test; assay type: functional, organism-based; details: dose 30-100 mg/kg, time min <=75
Carbonic anhydrase 9 = Carbonic anhydrase 9 (Homo sapiens, UniProt Q16790); assay: Inhibition of recombinant human CA9 pre-incubated for 15 mins measured by phenol red dye based stopped flow CO2 hydration assay
Mus musculus [3] = assay: Anti-hypersensitive activity in CD-1 albino mouse model of oxaliplatin-induced neuropathic pain assessed as restoration of normal pain threshold at 100 mg/kg, po administered 14 days post oxaliplatin induction and measured upto 75 mins by cold plate test; assay type: functional, organism-based; details: time min <=75
Mus musculus [4] = assay: Anti-hypersensitive activity in CD-1 albino mouse model of oxaliplatin-induced neuropathic pain assessed as restoration of normal pain threshold at 10 mg/kg, po administered 14 days post oxaliplatin induction and measured upto 75 mins by cold plate test; assay type: functional, organism-based; details: time min <=75
MCF7 [5] = assay: Cytotoxicity against human MCF7 cells assessed as reduction in cell viability at 100 uM measured after 72 hrs under hypoxic condition in presence of cisplatin by MTT assay; assay type: functional, cell-based
MCF7 [6] = assay: Cytotoxicity against human MCF7 cells assessed as reduction in cell viability at 100 uM measured after 72 hrs under hypoxic condition in presence of doxorubicin by MTT assay; assay type: functional, cell-based
MCF7 [7] = assay: Cytotoxicity against human MCF7 cells assessed as reduction in cell viability measured after 72 hrs under hypoxic condition by MTT assay; details: MCF7, 72 h

SMILES: NS(=O)(=O)c1ccc([Se]CC(O)C[Se]c2ccccc2)cc1 (stereo unspecified)
Activity (Mus musculus [1]): Dose-Dependent Effect | Activity (Mus musculus [2]): Active | Ki (Carbonic anhydrase 9): 84.5 nM

SMILES: C=CCOCC(O)C[Se]CC(O)C[Se]c1ccc(S(N)(=O)=O)cc1 (stereo unspecified)
Ki (Carbonic anhydrase 9): 157 nM

SMILES: C=CCOCC(O)C[Se]CC(O)CSc1ccc(S(N)(=O)=O)cc1 (stereo unspecified)
Ki (Carbonic anhydrase 9): 241 nM

SMILES: COc1ccc([Se]CC(O)CSc2ccc(S(N)(=O)=O)cc2)cc1 (stereo unspecified)
Ki (Carbonic anhydrase 9): 156 nM

SMILES: NS(=O)(=O)c1ccc(SCC(O)C[Se]c2ccccc2)cc1 (stereo unspecified)
Activity (Mus musculus [1]): Dose-Dependent Effect | Activity (Mus musculus [3]): Active | Ki (Carbonic anhydrase 9): 29.2 nM

SMILES: NS(=O)(=O)c1ccc([Se]CC(O)CSc2ccc(Br)cc2)cc1 (stereo unspecified)
Activity (Mus musculus [1]): Dose-Dependent Effect | Activity (Mus musculus [2]): Active | Ki (Carbonic anhydrase 9): 172 nM | Activity (Mus musculus [4]): Active

SMILES: CC(O)CSCC(O)C[Se]c1ccc(S(N)(=O)=O)cc1 (stereo unspecified)
Ki (Carbonic anhydrase 9): 275 nM

Ki (Carbonic anhydrase 9): 193 nM
SMILES: Cc1ccc(S(=O)(=O)N[C@@H](C)CSCC(O)CSc2ccc(S(N)(=O)=O)cc2)cc1 (stereo partly specified)

SMILES: CCCC[Se]CC(O)CSc1ccc(S(N)(=O)=O)cc1 (stereo unspecified)
Ki (Carbonic anhydrase 9): 164 nM | Activity (MCF7 [5]): Active | Activity (MCF7 [6]): Active

SMILES: NS(=O)(=O)c1ccc([Se]CC(O)CSc2ccccc2)cc1 (stereo unspecified)
Ki (Carbonic anhydrase 9): 288 nM | Activity (MCF7 [5]): inactive | Activity (MCF7 [6]): Active

SMILES: Cc1ccc([Te]CC(O)C[Se]c2ccc(S(N)(=O)=O)cc2)cc1 (stereo unspecified)
Ki (Carbonic anhydrase 9): 152 nM

SMILES: Cc1ccccc1[Se]CC(O)C[Se]c1ccc(S(N)(=O)=O)cc1 (stereo unspecified)
Ki (Carbonic anhydrase 9): 29.4 nM

Ki (Carbonic anhydrase 9): 175 nM
SMILES: NS(=O)(=O)c1ccc(SCC(O)CSc2ccccc2Br)cc1 (stereo unspecified)

SMILES: NS(=O)(=O)c1ccc([Se]CC(O)CSc2ncccn2)cc1 (stereo unspecified)
Ki (Carbonic anhydrase 9): 31 nM

SMILES: COc1cc([Te]CC(O)CSc2ccc(S(N)(=O)=O)cc2)cc(OC)c1OC (stereo unspecified)
Ki (Carbonic anhydrase 9): 187 nM | Activity (MCF7 [5]): Active | IC50 (MCF7 [7]): 125000 nM | Activity (MCF7 [6]): Active

SMILES: CCCC[Se]CC(O)C[Se]c1ccc(S(N)(=O)=O)cc1 (stereo unspecified)
Ki (Carbonic anhydrase 9): 208 nM

Ki (Carbonic anhydrase 9): 135 nM
SMILES: NS(=O)(=O)c1ccc(SCC(O)CSc2cccc(Br)c2)cc1 (stereo unspecified)
